From ChEMBL document CHEMBL1201862, “PubChem BioAssay data set” (2004)
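In this assay, cells in 96-well plates receive the compound at five concentrations for 48 hours. Endpoints are linearly interpolated between the surrounding concentrations. GI50 marks 50% less growth.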 The source made the active and inactive calls. Cut-off read from the data, not from the text of the source: active = GI50 up to about 1.1 µM and inactive = higher.

Experiments:
Assay in all cases: NCI anticancer screen, dose series, 48 h
RXF 393 = test system: RXF 393
MDA-MB-231 = test system: MDA-MB-231
SF-268 = test system: SF-268
OVCAR-5 = test system: OVCAR-5
BT-549 = test system: BT-549
Hs-578T = test system: Hs-578T
DU-145 = test system: DU-145
A549 = test system: A549
NCI-H23 = test system: NCI-H23
SNB-75 = test system: SNB-75
HL-60 = test system: HL-60
SN12C = test system: SN12C
KM12 = test system: KM12
UACC-257 = test system: UACC-257
LOX IMVI = test system: LOX IMVI
CAKI-1 = test system: CAKI-1
NCI-H226 = test system: NCI-H226
MCF7 = test system: MCF7
HCT-116 = test system: HCT-116
M14 = test system: M14
PC-3 = test system: PC-3
OVCAR-3 = test system: OVCAR-3
TK-10 = test system: TK-10
UACC-62 = test system: UACC-62
IGROV-1 = test system: IGROV-1
UO-31 = test system: UO-31
SF-539 = test system: SF-539
HCC 2998 = test system: HCC 2998
Malme-3M = test system: Malme-3M
NCI-H460 = test system: NCI-H460
K562 = test system: K562
SF-295 = test system: SF-295
EKVX = test system: EKVX
OVCAR-8 = test system: OVCAR-8
MDA-MB-435 = test system: MDA-MB-435
SW-620 = test system: SW-620
ACHN = test system: ACHN
CCRF-CEM = test system: CCRF-CEM
SK-MEL-28 = test system: SK-MEL-28
SK-MEL-2 = test system: SK-MEL-2
SK-MEL-5 = test system: SK-MEL-5
HCT-15 = test system: HCT-15
HOP-62 = test system: HOP-62
NCI-H522 = test system: NCI-H522
MDA-N = test system: MDA-N
OVCAR-4 = test system: OVCAR-4
HOP-92 = test system: HOP-92
MOLT-4 = test system: MOLT-4
SNB-19 = test system: SNB-19
NCI/ADR-RES = test system: NCI/ADR-RES
RPMI-8226 = test system: RPMI-8226
786-0 = test system: 786-0
U-251 = test system: U-251
HT-29 = test system: HT-29
SR = test system: SR
COLO 205 = test system: COLO 205
A498 = test system: A498
SK-OV-3 = test system: SK-OV-3

Measured: GI50

CN(CCCCCl)P(=O)(OCC1=CC(=O)c2ccccc2C1=O)OC[C@H]1O[C@@H](n2cc(F)c(=O)[nH]c2=O)C[C@@H]1O (some centres undefined)
inactive: MDA-MB-231 3.2 µM | OVCAR-5 4.38 µM | BT-549 9.06 µM | KM12 3.64 µM | UACC-257 6.17 µM | TK-10 1.45 µM | K562 1.5 µM | EKVX 3.18 µM | SW-620 3.51 µM | SK-MEL-28 4.11 µM | SK-MEL-2 8.09 µM
3.66 µM: HCT-15
active: RXF 393 0.0625 µM | SF-268 < 0.01 µM | Hs-578T < 0.01 µM | DU-145 0.052 µM | A549 < 0.01 µM | NCI-H23 0.0532 µM | SNB-75 < 0.0176 µM | HL-60 0.69 µM | SN12C < 0.0323 µM | LOX IMVI < 0.01 µM | CAKI-1 < 0.0115 µM | NCI-H226 0.521 µM | MCF7 < 0.01 µM | HCT-116 0.0693 µM | M14 0.0897 µM | PC-3 0.165 µM | OVCAR-3 0.109 µM | UACC-62 0.0399 µM | IGROV-1 0.124 µM | UO-31 < 0.01 µM | SF-539 < 0.0244 µM | HCC 2998 < 0.01 µM | Malme-3M 1.1 µM | NCI-H460 < 0.01 µM | SF-295 < 0.0175 µM | OVCAR-8 0.0378 µM | MDA-MB-435 0.684 µM | ACHN < 0.01 µM | CCRF-CEM < 0.01 µM | SK-MEL-5 0.0334 µM | HOP-62 0.0415 µM | NCI-H522 0.239 µM | MDA-N 0.753 µM | OVCAR-4 0.681 µM | HOP-92 < 0.0285 µM

COc1cc(NC(C)c2ccc3c(c2)OCCO3)cc(OC)c1OC (centres undefined)
24.4 µM: HCT-15
inactive: RXF 393 27.3 µM | MDA-MB-231 32.5 µM | SF-268 26.7 µM | OVCAR-5 46.6 µM | BT-549 33 µM | Hs-578T 20.9 µM | MOLT-4 26.3 µM | SNB-19 95.5 µM | DU-145 36.6 µM | NCI/ADR-RES 22.9 µM | A549 45 µM | NCI-H23 18.9 µM | RPMI-8226 23.9 µM | HL-60 18.5 µM | SN12C 63.2 µM | KM12 31.5 µM | UACC-257 28.7 µM | LOX IMVI 46.2 µM | 786-0 34.4 µM | U-251 29.5 µM | CAKI-1 46 µM | NCI-H226 24.3 µM | MCF7 29.6 µM | HCT-116 30.3 µM | M14 31.4 µM | PC-3 44.9 µM | OVCAR-3 32.1 µM | TK-10 63 µM | UACC-62 29.9 µM | IGROV-1 59.3 µM | HT-29 33.7 µM | UO-31 56.9 µM | SF-539 22.1 µM | SR 10.4 µM | HCC 2998 23 µM | Malme-3M 19.1 µM | NCI-H460 31.6 µM | COLO 205 31.3 µM | K562 8.97 µM | SF-295 23.9 µM | EKVX 33 µM | OVCAR-8 47.3 µM | MDA-MB-435 4.69 µM | SW-620 33.9 µM | ACHN 70 µM | SK-MEL-28 56.4 µM | SK-MEL-2 23.2 µM | SK-MEL-5 18.5 µM | HOP-62 58.7 µM | NCI-H522 17.5 µM | MDA-N 5.4 µM | OVCAR-4 68.4 µM | A498 77.1 µM | HOP-92 > 100 µM

CC(=O)OCC(OC(C)=O)C1C[C@H]2O[C@@H]3[C@H](C[C@H]2O1)O[C@@]1(C[C@@H]3C)C[C@H](C)[C@@H]2O[C@]3(C[C@@H]2O1)C[C@H]1O[C@H]2[C@H](C)[C@H]4OC(=O)C[C@H]5CC[C@@H]6OC7[C@H]8O[C@]9(CC[C@H]%10CC(=O)[C@H](CC[C@H]%11C[C@@H](C)C(=O)C(C[C@@H]4O[C@H]2C[C@H]1O3)O%11)O%10)CC8O[C@@H]7[C@@H](O9)[C@H]6O5 (some centres undefined)
active: RXF 393 0.00283 µM | MDA-MB-231 0.0199 µM | SF-268 0.00509 µM | BT-549 0.000553 µM | Hs-578T 0.00179 µM | MOLT-4 0.0184 µM | SNB-19 0.0101 µM | DU-145 0.00423 µM | NCI/ADR-RES 0.102 µM | A549 0.00501 µM | NCI-H23 0.00267 µM | SNB-75 0.00265 µM | RPMI-8226 0.00229 µM | HL-60 0.000489 µM | SN12C 0.0142 µM | KM12 0.00183 µM | LOX IMVI 0.00486 µM | 786-0 0.00308 µM | U-251 0.00506 µM | CAKI-1 0.00515 µM | NCI-H226 0.00703 µM | MCF7 0.00151 µM | HCT-116 0.00234 µM | M14 0.00619 µM | PC-3 0.00337 µM | OVCAR-3 0.00319 µM | UACC-62 0.00248 µM | IGROV-1 0.00322 µM | UO-31 0.0388 µM | SR 0.000233 µM | HCC 2998 0.003 µM | SK-OV-3 0.00728 µM | NCI-H460 0.00315 µM | COLO 205 0.00281 µM | K562 0.00123 µM | SF-295 0.00242 µM | EKVX 0.0201 µM | OVCAR-8 0.00964 µM | MDA-MB-435 0.000195 µM | SW-620 0.00438 µM | ACHN 0.0627 µM | CCRF-CEM 0.00436 µM | SK-MEL-28 0.011 µM | SK-MEL-2 0.0481 µM | SK-MEL-5 0.000458 µM | HOP-62 0.00505 µM | NCI-H522 0.00051 µM | MDA-N 0.000321 µM | A498 > 0.434 µM | HOP-92 0.0611 µM
0.00635 µM: HCT-15

CN(C)Cc1cc(C=O)cc(CN(C)C)c1O
> 100 µM: HCT-15
inactive: RXF 393 > 100 µM | MDA-MB-231 > 100 µM | SF-268 > 100 µM | BT-549 > 100 µM | Hs-578T > 100 µM | MOLT-4 > 100 µM | SNB-19 > 100 µM | DU-145 > 100 µM | NCI/ADR-RES > 100 µM | A549 > 100 µM | NCI-H23 26.1 µM | SNB-75 > 100 µM | RPMI-8226 > 100 µM | HL-60 > 100 µM | SN12C > 100 µM | KM12 > 100 µM | UACC-257 > 100 µM | LOX IMVI > 100 µM | 786-0 > 100 µM | U-251 > 100 µM | NCI-H226 > 100 µM | MCF7 > 100 µM | HCT-116 > 100 µM | PC-3 > 100 µM | OVCAR-3 > 100 µM | TK-10 > 100 µM | IGROV-1 > 100 µM | HT-29 > 100 µM | UO-31 > 100 µM | SF-539 > 100 µM | SR > 100 µM | HCC 2998 > 100 µM | Malme-3M > 100 µM | NCI-H460 > 100 µM | COLO 205 > 100 µM | K562 > 100 µM | SF-295 > 100 µM | EKVX > 100 µM | OVCAR-8 > 100 µM | MDA-MB-435 > 100 µM | SW-620 > 100 µM | ACHN > 100 µM | CCRF-CEM > 100 µM | SK-MEL-28 > 100 µM | SK-MEL-5 > 100 µM | HOP-62 > 100 µM | NCI-H522 > 100 µM | MDA-N > 100 µM | OVCAR-4 > 100 µM | A498 > 100 µM | HOP-92 > 100 µM

CCOC(=O)c1c(-c2ccccc2)c(C)cn1C
> 10 µM: HCT-15
inactive: RXF 393 > 10 µM | SF-268 > 10 µM | OVCAR-5 > 10 µM | BT-549 > 10 µM | Hs-578T > 10 µM | MOLT-4 > 10 µM | SNB-19 > 10 µM | DU-145 > 10 µM | NCI/ADR-RES > 10 µM | A549 > 10 µM | NCI-H23 > 10 µM | SNB-75 > 10 µM | SN12C 3.73 µM | KM12 > 10 µM | UACC-257 > 10 µM | 786-0 > 10 µM | U-251 > 10 µM | NCI-H226 > 10 µM | HCT-116 > 10 µM | M14 > 10 µM | OVCAR-3 > 10 µM | TK-10 > 10 µM | UACC-62 > 10 µM | IGROV-1 > 10 µM | HT-29 > 10 µM | UO-31 > 10 µM | SF-539 > 10 µM | SR > 10 µM | SK-OV-3 > 10 µM | NCI-H460 > 10 µM | K562 > 10 µM | SF-295 > 10 µM | EKVX > 10 µM | OVCAR-8 > 10 µM | MDA-MB-435 > 10 µM | ACHN > 10 µM | CCRF-CEM > 10 µM | SK-MEL-2 > 10 µM | NCI-H522 > 10 µM | MDA-N > 10 µM | OVCAR-4 > 10 µM | HOP-92 > 10 µM
active: MDA-MB-231 0.0125 µM
